Assay: Half-maximal inhibition of [125I]CCK-33 binding to cholecystokinin receptor
Work on O=C1Nc2ccc(Cl)cc2C(c2ccccc2)=N[C@@H]1Cc1c[nH]c2ccccc12 yielded an IC50 of 3.4 µM.

Assay: Half-maximal inhibition of [125I]gastrin binding to guinea pig gastric glands
For CN1C(=O)C(NC(=O)c2ccsc2)N=C(c2ccccc2F)c2ccccc21 (centres undefined), the IC50 was 11 µM. O=C(Cc1c[nH]c2ccccc12)NC1N=C(c2ccccc2)c2ccccc2NC1=O (centres undefined) gave an IC50 of 32 µM. With COc1ccc(C(=O)NC2N=C(c3ccccc3F)c3ccccc3NC2=O)cc1 (centres undefined) the IC50 was 5.4 µM. In the case of CC1(C(=O)NC2N=C(c3ccccc3F)c3ccccc3NC2=O)C=Cc2ccccc21 (centres undefined), the IC50 is reported as > 10 µM. With CC(C)(C)OC(=O)N[C@H](Cc1ccccc1)C(=O)NC1N=C(c2ccccc2)c2ccccc2NC1=O (some centres undefined) the IC50 was > 100 µM. With CN1C(=O)C(NC(=O)c2ccc(Cl)cc2)[N+]([O-])=C(c2ccccc2F)c2ccccc21 (centres undefined) the IC50 was 2.4 µM. With CN1C(=O)[C@@H](NC(=O)c2ccc(Br)cc2)N=C(c2ccccc2)c2ccccc21 the IC50 was 0.8 µM. With O=C(NC1N=C(c2ccccc2)c2ccccc2NC1=O)c1ccc(-c2ccccc2)cc1 (centres undefined) the IC50 was > 100 µM. In the case of CN1C(=O)[C@@H](NC(=O)c2ccc(Br)cc2)N=C(c2ccccc2F)c2ccccc21, the IC50 is reported as 0.68 µM. Work on CN1C(=O)C(NC(=O)c2ccc(C(C)(C)C)cc2)N=C(c2ccccc2F)c2ccccc21 (centres undefined) yielded an IC50 of 6.4 µM. For CSc1ccc(C(=O)NC2N=C(c3ccccc3)c3ccccc3NC2=O)cc1 (centres undefined), the IC50 was 8 µM. For CN1C(=O)[C@@H](NC(=O)c2cc3ccccc3[nH]2)N=C(c2ccccc2F)c2ccccc21, the IC50 was 0.028 µM. Compound CN1C(=O)C(NC(=O)c2cccc(I)c2)N=C(c2ccccc2F)c2ccccc21 (centres undefined) has an IC50 of 0.39 µM.

Source: BindingDB's records for doi:10.1021/jm00120a002 (Merck Sharp & Dohme Research Laboratories, 1989)
